Our source for the IC50, Activity and inhibition values is ChEMBL document CHEMBL4811304, “Design, synthesis and biological evaluation of dual mTOR/HDAC6 inhibitors in MDA-MB-231 cells” (Bioorg Med Chem Lett, 2021).

SMILES strings stand for the structures. pIC50: −log10 of the molar value. Calls of active or inactive are those of the source. No cut-off for these calls is given here.

The test system of one data set is MDA-MB-468. As to the kind of experiment: Antiproliferative activity against human MDA-MB-468 cells measured after 48 hrs. The class given is functional, cell-based. The conditions noted are these: MDA-MB-468, 48 h.
For data set [1], the system named is MDA-MB-231. The data set is described as follows: Induction of apoptosis in human MDA-MB-231 cells assessed as late apoptotic cells at 5 uM by annexin V/propidium iodide staining-based flow cytometry analysis (reference value: 2.34 %). Type of data set: functional. On the technique in general: In flow cytometry, cells or beads pass a laser one at a time.
Data set [2] deals with T1, Serine/threonine-protein kinase mTOR (Homo sapiens, UniProt P42345). The data set is described as follows: Inhibition of mTOR (unknown origin) at 0.5 uM relative to control.
For data set [3], the system named is MDA-MB-231. The data set is described as follows: Induction of autophagy in human MDA-MB-231 cells transfected with GFP-LC3 assessed as decrease in SQSTM1/p62 expression at 5 to 20 uM after 48 hrs by Western blot analysis. The class given is functional, cell-based. The settings on record: dose 5-20 µM. In general terms: Immunoblotting shows a protein as a band on a membrane.

Data set [4] relates to MDA-MB-231. As to the kind of experiment: Induction of apoptosis in human MDA-MB-231 cells assessed as early apoptotic cells at 10 uM by annexin V/propidium iodide staining-based flow cytometry analysis (reference value: 0.69 %). The class given is functional.
Data set [5] concerns MDA-MB-231. The data set is described as follows: Induction of apoptosis in human MDA-MB-231 cells assessed as late apoptotic cells at 10 uM by annexin V/propidium iodide staining-based flow cytometry analysis (reference value: 2.34 %). The class given is functional.
Data set [6] concerns the target T1, Serine/threonine-protein kinase mTOR. As to the kind of experiment: Inhibition of mTOR (unknown origin).
Data set [7] concerns MDA-MB-231. The data set is described as follows: Induction of apoptosis in human MDA-MB-231 cells assessed as early apoptotic cells at 5 uM by annexin V/propidium iodide staining-based flow cytometry analysis (reference value: 0.69 %). The class given is functional.
A further data set concerns MDA-MB-436. As to the kind of experiment: Antiproliferative activity against human MDA-MB-436 cells measured after 48 hrs. The class given is functional, cell-based. The conditions noted are these: MDA-MB-436, 48 h.
The subject of data set [8] is MDA-MB-231. The data set is described as follows: Induction of apoptosis in human MDA-MB-231 cells assessed as upregulation of BAX at 5 to 20 uM by Western blot analysis. The settings on record: dose 5-20 µM. Type of data set: functional, cell-based.
Data set [9] relates to MDA-MB-231. The data set is described as follows: Induction of apoptosis in human MDA-MB-231 cells assessed as necrotic cells at 20 uM by annexin V/propidium iodide staining-based flow cytometry analysis (reference value: 0.099 %). Type of data set: functional.
Data set [10] relates to MDA-MB-231. The data set is described as follows: Inhibition of cell migration in human MDA-MB-231 cells after 48 hrs by wound healing assay. The conditions noted are these: dose 5-20 µM. Type of data set: functional, cell-based.
The test system of data set [11] is MDA-MB-231. The data set is described as follows: Induction of apoptosis in human MDA-MB-231 cells assessed as live cells at 20 uM by annexin V/propidium iodide staining-based flow cytometry analysis (reference value: 96.7 %). The class given is functional.
The next data set concerns the target Histone deacetylase 3 (Homo sapiens, UniProt O15379). As to the kind of experiment: Inhibition of HDAC3 (unknown origin).
The test system of data set [12] is MDA-MB-231. As to the kind of experiment: Induction of apoptosis in human MDA-MB-231 cells assessed as downregulation of Bcl-2 at 5 to 20 uM by Western blot analysis. The settings on record: dose 5-20 µM. Type of data set: functional, cell-based.
Data set [13] relates to MDA-MB-231. The data set is described as follows: Induction of apoptosis in human MDA-MB-231 cells assessed as early apoptotic cells at 20 uM by annexin V/propidium iodide staining-based flow cytometry analysis (reference value: 0.69 %). Type of data set: functional.
Data set [14] has as its system MDA-MB-231. As to the kind of experiment: Antiproliferative activity against human MDA-MB-231 cells measured after 48 hrs. Type of data set: functional, cell-based. The settings on record: MDA-MB-231, 48 h.
Data set [15] has as its system MDA-MB-231. As to the kind of experiment: Induction of autophagy in human MDA-MB-231 cells transfected with GFP-LC3 assessed as increase in LC3II level at 5 to 20 uM after 48 hrs by Western blot analysis. The class given is functional, cell-based. The settings on record: dose 5-20 µM.
Another data set deals with MCF-10A. As to the kind of experiment: Cytotoxicity against human MCF-10A cells assessed as increase in cell viability. The class given is cell-based.
The target in a further data set is Histone deacetylase 1 (Homo sapiens, UniProt Q13547). As to the kind of experiment: Inhibition of HDAC1 (unknown origin).
Data set [16] has as its system MDA-MB-231. The data set is described as follows: Induction of apoptosis in human MDA-MB-231 cells assessed as late apoptotic cells at 20 uM by annexin V/propidium iodide staining-based flow cytometry analysis (reference value: 2.34 %). The class given is functional.

Sequence of Histone deacetylase 1 (Q13547 whole entry): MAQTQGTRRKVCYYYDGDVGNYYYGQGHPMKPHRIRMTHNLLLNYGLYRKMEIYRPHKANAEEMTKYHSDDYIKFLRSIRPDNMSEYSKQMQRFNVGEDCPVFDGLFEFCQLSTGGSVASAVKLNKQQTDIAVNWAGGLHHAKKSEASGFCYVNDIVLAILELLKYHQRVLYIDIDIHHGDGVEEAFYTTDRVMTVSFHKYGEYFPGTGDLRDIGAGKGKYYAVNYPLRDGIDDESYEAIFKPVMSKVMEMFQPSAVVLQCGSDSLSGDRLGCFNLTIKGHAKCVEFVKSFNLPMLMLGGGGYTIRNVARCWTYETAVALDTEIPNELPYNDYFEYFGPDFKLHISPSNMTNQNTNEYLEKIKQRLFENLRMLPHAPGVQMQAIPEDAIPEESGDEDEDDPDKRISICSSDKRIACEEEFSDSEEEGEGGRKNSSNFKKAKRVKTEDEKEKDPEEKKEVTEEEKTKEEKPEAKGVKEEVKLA
Sequence of Histone deacetylase 3 (O15379 whole entry): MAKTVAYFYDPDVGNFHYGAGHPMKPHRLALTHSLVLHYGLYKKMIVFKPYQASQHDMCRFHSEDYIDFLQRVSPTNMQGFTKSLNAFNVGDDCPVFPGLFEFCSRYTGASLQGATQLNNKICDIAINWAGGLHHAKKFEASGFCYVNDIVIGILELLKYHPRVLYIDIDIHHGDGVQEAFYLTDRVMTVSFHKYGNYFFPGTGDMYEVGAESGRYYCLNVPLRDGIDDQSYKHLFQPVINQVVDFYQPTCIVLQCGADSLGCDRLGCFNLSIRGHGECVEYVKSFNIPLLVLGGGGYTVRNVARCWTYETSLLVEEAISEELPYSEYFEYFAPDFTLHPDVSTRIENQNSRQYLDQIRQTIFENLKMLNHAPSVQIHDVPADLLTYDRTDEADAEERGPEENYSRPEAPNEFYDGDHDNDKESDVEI

As usually defined, the pIC50 is the IC50 on a negative log10 scale, so that one unit is a factor of ten. Low readings indicate a high IC50, high ones a low IC50. The inhibition is the drop in the measured response relative to a control, in per cent. With `CN1CCN(c2nc(-c3ccc(C(=O)NO)cc3)nc3cc(Cl)ccc23)CC1`, the pIC50 in the data set with MDA-MB-468 was 4.84; in data set [6], 6.87; in the data set on MDA-MB-436, 4.97; at Histone deacetylase 3, 6.38; in the data set with MDA-MB-231 [14], 5.08; against Histone deacetylase 1, 6.44. The Activity with MDA-MB-231 [1] is listed as 6.39%; in the data set with MDA-MB-231 [4], 7.95%; in the data set with MDA-MB-231 [5], 22.4%; with MDA-MB-231 [7], 4.84%; in the data set on MDA-MB-231 [9] it was 0.46%; in the data set with MDA-MB-231 [11], 53.9%. The figures for the Activity in the data set on MDA-MB-231 [13], with MCF-10A and with MDA-MB-231 [16] were 11.3%, “Non-Toxic” and 34.3%, respectively. The compound also yielded an inhibition in data set [2] of 91.4%. For the same compound, the result in the data set with MDA-MB-231 [3], in the data set on MDA-MB-231 [8], with MDA-MB-231 [12] and in the data set on MDA-MB-231 [15] was Active. In addition, the inhibition result in the data set on MDA-MB-231 [10] is “Active”.
